{"source": "patent US20250213608A1", "about": "“VANADYL SULFATE COMPOSITIONS AND METHODS OF USE THEREFOR FOR THE TREATEMENT AND PREVENTION OF AGING-RELATED DISEASES AND CANCER” (The University of Chicago, priority 2022, published 2025)", "key": {"senescent cells": {"test_system": "senescent cells", "assay": "Rescue of VS-induced cell death by NAC", "assay_type": "cell-based", "settings": "FIG. 7A-C", "description": "(§1) Experiments were conducted during development of embodiments herein to screen for natural products that provide senolytic activity. A library of diet-derived blood chemicals was screened to identify compounds that selectively induce cell death in human fibroblast BJ cells with therapy-induced senescence by doxorubicin (FIG. 1A). The top candidates identified were tested in a second screen (FIG. 1B) using human fibroblast HCA2 cells with senescence induced by Nutlin3a (p53 activator), RO3306 (CDK1 inhibitor), and BI2436 (PLK1 inhibitor). […] Temporal mechanistic studies of VS were also conducted (FIG. 8A-B)."}, "animal models": {"test_system": "animal models", "settings": "cited from earlier work"}, "[1]": {"test_system": "human fibroblast BJ cells with therapy-induced senescence by doxorubicin", "assay": "Screen for senolytic effect in cells with therapy-induced senescence", "assay_type": "cell-based", "settings": "senescent BJ cells versus control uninduced cells; FIG. 1A, 2A", "description": "(§2) Experiments were conducted during development of embodiments herein to screen for diet-derived dietary substances, natural products, blood chemicals, etc. that provide senolytic activity with reduced “off-target” toxic side effects. A library of diet-derived blood chemicals was screened to identify compounds that selectively induce cell death in human fibroblast BJ cells with therapy-induced senescence by doxorubicin (FIG. 1A). The top candidates identified were tested in a second screen (FIG. 1B) using human fibroblast HCA2 cells with senescence induced by Nutlin3a (p53 activator), RO3306 (CDK1 inhibitor), and BI2436 (PLK1 inhibitor).\nas §1"}, "type 2 diabetes": {"test_system": "type 2 diabetes", "settings": "cited from earlier work"}, "[2]": {"test_system": "human fibroblast HCA2 cells with senescence induced by Nutlin3a, RO3306 and BI2436", "assay": "Second screen for senolytic effect in induced-senescent HCA2 cells", "assay_type": "cell-based", "settings": "senescent HCA2 cells versus control uninduced cells; FIG. 1B, 2B", "description": "as §2, §1"}, "[3]": {"test_system": "CCl4-induced liver fibrosis", "assay": "CCl4-induced liver fibrosis", "assay_type": "in vivo", "settings": "FIG. 5A-D"}, "aged mice": {"test_system": "aged mice", "assay": "Aging-related phenotypes in aged mice after oral gavage", "assay_type": "in vivo", "from_the_text": "In some embodiments, provided herein is the administration of VS as a pharmaceutical or nutraceutical composition to treat or prevent pathogenic senescence-related diseases (e.g., liver and lung fibrosis, atherosclerosis, diabetes, osteoarthritis, etc.). In some embodiments, provided herein is the administration of VS as a pharmaceutical or nutraceutical composition to treat or prevent various diverse human cancers, alone or in combination with anti-cancer therapies that result in therapy-induced senescence."}, "A549 xenograft": {"test_system": "A549 xenograft", "assay": "A549 xenograft model combined with senescence induction", "assay_type": "in vivo", "settings": "FIG. 6A-B"}, "[4]": {"test_system": "apolipoprotein E-deficient (ApoE-/-) mice", "assay": "Atherosclerosis model in ApoE-/- mice", "assay_type": "in vivo", "from_the_text": "Atherosclerosis-prone apolipoprotein E-deficient (ApoE^−/−) mice were used that display poor lipoprotein clearance with subsequent accumulation of cholesterol ester-enriched particles in the blood, which promote the development of atherosclerotic plaques. Compared to wild type control mice with no disease (WT-ND), the ApoE−/− mice developed atherosclerosis-like disease with accumulation of cholesterol that was stained with Sudan IV showing orange-red color (FIG. 9A, left)."}, "[5]": {"test_system": "bleomycin-induced lung fibrosis", "assay": "Bleomycin-induced lung fibrosis", "assay_type": "in vivo", "settings": "FIG. 4A-D"}, "[6]": {"settings": "aged mice, oral gavage, kidney tissues"}}, "note": "Entries after “also recorded” stand apart in the source; their conditions may differ.", "data": [{"compound": "O=S(=O)([O-])[O-].[O]=[V+2]", "note": "[VS, vanadyl sulfate]", "values": [{"measurement": "rescue of VS-induced cell death by NAC", "setting": "senescent cells", "value": "can be rescued by NAC"}, {"measurement": "hyperglycemia", "setting": "animal models", "value": "reduce"}, {"measurement": "insulin resistance", "setting": "animal models", "value": "reduce"}, {"measurement": "cell death in senescent BJ cells", "setting": "[1]", "value": "selectively triggers cell death; also recorded: selectively induced cell death"}, {"measurement": "hepatic and muscle insulin sensitivity", "setting": "type 2 diabetes", "value": "improve"}, {"measurement": "cell death in senescent HCA2 cells", "setting": "[2]", "value": "selectively triggers cell death; also recorded: selectively induced cell death"}, {"measurement": "therapeutic efficacy in CCl4-induced liver fibrosis", "setting": "[3]", "value": "shows therapeutic efficacy"}, {"measurement": "aging / senescent cells in vivo", "setting": "aged mice; FIG. 3A-F", "value": "ameliorates aging by eliminating senescent cells"}, {"measurement": "aging-related phenotypes", "setting": "aged mice; aged mice, oral gavage", "value": "improved"}, {"measurement": "serum urea levels", "setting": "aged mice; aged mice, oral gavage", "value": "reducing"}, {"measurement": "gene expression level of CDK inhibitor p16INK4a", "setting": "aged mice; [6]", "value": "reducing"}, {"measurement": "gene expression level of inflammatory cytokine IL-6", "setting": "aged mice; [6]", "value": "reducing"}, {"measurement": "tumor growth", "setting": "A549 xenograft", "value": "suppresses tumor growth"}, {"measurement": "accumulation of cholesterol in atherosclerotic plaques", "setting": "[4]; ApoE-/- mice, Sudan IV staining, quantitation, FIG. 9A", "value": "reduced"}, {"measurement": "overall total cholesterol level", "setting": "[4]; ApoE-/- mice, FIG. 9B", "value": "reduced"}, {"measurement": "therapeutic efficacy in atherosclerosis model", "setting": "[4]; FIG. 9A-B", "value": "provides therapeutic efficacy"}, {"measurement": "therapeutic efficacy in bleomycin-induced lung fibrosis", "setting": "[5]", "value": "shows therapeutic efficacy"}]}]}
